From article PMC6473159, “Potent Inhibition of Zika Virus Replication by Aurintricarboxylic Acid” (Frontiers in Microbiology, 2019)
Read-outs that look alike come from different tables or passages of the source.

Tests used:
ZIKV [1] = tested on: ZIKV; parameters: method as in Kuivanen et al., 2017; conditions: human retinal pigment epithelial (RPE) cells; ref Kuivanen et al., 2017; cited from earlier work
ZIKV Paraiba/2015 [2] = experiment: Microplaque reduction assay, ZIKV Paraiba/2015 in Vero cells, post-infection treatment; format: cell-based; conditions: for selectivity ratio at 36 h: African green monkey, Vero cells infected with ZIKV Paraiba/2015, Paraiba/2015, Vero cells, read-out: SI (selective index, CC50/IC50); for IC50: Zika virus, Vero
[3] = Cell viability assay (CellTiter 96), Vero cells; format: cell-based, African green monkey; conditions: African green monkey; for CC50 at 36 h: 36 h post-treatment; for CC50 at 72 h: 72 h post-treatment
Experimental: (§1) Cell viability in Vero and A549 cells was measured using the CellTiter 96 Non-Radioactive Cell Proliferation assay (Promega) following the manufacturer’s instructions. […] Plates were incubated at 37°C in a 5% CO2 atmosphere for 36 or 72 h. Samples were treated with 15 μl of Dye Solution and incubated at 37°C in a 5% CO2 atmosphere for 4 h. Next, cells were treated with 100 μl of Solubilization Solution/Stop Mix and absorbance at 570 nm was measured using a Vmax kinetic microplate reader (Molecular Devices, Waltham, MA, United States). Viability of compound-treated cells was calculated as a percentage relative to values obtained with DMSO-treated cells. Non-linear regression curves and the median cytotoxic concentration (CC50) were calculated using GraphPad Prism software version 8.0.

[4] = Cell viability assay (CellTiter 96), A549 cells; format: cell-based, human; conditions: human; for CC50 at 36 h: 36 h post-treatment; for CC50 at 72 h: 72 h post-treatment
Experimental: as §1

ZIKV Paraiba/2015 [5] = experiment: Microplaque reduction assay, ZIKV Paraiba/2015 in A549 cells, post-infection treatment; format: cell-based; conditions: for IC50: Zika virus, A549, 36 h; for selectivity ratio at 36 h: human, A549 cells infected with ZIKV Paraiba/2015, Paraiba/2015, A549 cells, post-treatment, read-out: SI (selective index, CC50/IC50)
ZIKV Paraiba/2015 [6] = experiment: Virus growth kinetics, ZIKV Paraiba/2015 in Vero cells; format: cell-based, Zika virus
Experimental: (§2) At 12, 24, 48, and 72 h post-infection (h p.i.), tissue culture supernatants were collected and titrated on Vero cells by immunostaining as described previously ([Marquez-Jurado et al., 2018]).
(§3) Dotted line indicates the limit of detection (20 FFU/ml).

Vero cells = experiment: Cell viability assay (CellTiter 96), Vero cells; format: cell-based, African green monkey; conditions: 36 or 72 h post-treatment, up to highest concentration tested (1,000 μM)
Experimental: as §1

ZIKV Nigeria/1968 = experiment: Microplaque reduction assay, ZIKV Nigeria/1968 in Vero cells
Vaccinia virus = conditions: 30 mg/kg/day, ref Smee et al., 2010; cited from earlier work
A549 cells = experiment: Cell viability assay (CellTiter 96), A549 cells; format: cell-based, human; conditions: 36 or 72 h post-treatment, up to highest concentration tested (1,000 μM)
Experimental: as §1

[7] = tested on: ZIKV-induced CPE in A549 cells; experiment: ZIKV-induced cytopathic effect (light microscope), A549 cells; format: cell-based, human; conditions: MOI 0.1, 48 h p.i., 25 μM and more clearly 250 μM
[8] = tested on: caspase 3 and 7 activities; experiment: Apoptosis assay (Caspase-Glo 3/7), ZIKV-infected Vero cells; conditions: 250 μM
ZIKV Puerto Rico/2015 = experiment: Microplaque reduction assay, ZIKV Puerto Rico/2015 in Vero cells
[9] = tested on: caspase 3 and 7 activities; experiment: Apoptosis assay (Caspase-Glo 3/7), ZIKV-infected A549 cells; conditions: 250 μM
ZIKV Uganda/1947 = experiment: Microplaque reduction assay, ZIKV Uganda/1947 in Vero cells
[10] = tested on: ZIKV French Polynesia/2013; experiment: Microplaque reduction assay, ZIKV French Polynesia/2013 in Vero cells
[11] = tested on: ZIKV-induced CPE in Vero cells; experiment: ZIKV-induced cytopathic effect (light microscope), Vero cells; format: cell-based, African green monkey; conditions: MOI 0.1, 48 h p.i., 25 μM and more clearly 250 μM
ZIKV Paraiba/2015 [12] = experiment: Virus growth kinetics, ZIKV Paraiba/2015 in A549 cells; format: cell-based, Zika virus
Experimental: as §2, §3

ZIKV Paraiba/2015 [13] = experiment: Microplaque reduction assay, pre-treatment of Vero cells before ZIKV Paraiba/2015 infection; format: cell-based; conditions: for IC50: Zika virus, Vero, fixed 36 h p.i.
ZIKV [14] = tested on: ZIKV; parameters: method as in Bullard-Feibelman et al., 2017; conditions: Huh-7 cells; ref Bullard-Feibelman et al., 2017; cited from earlier work
ZIKV [15] = tested on: ZIKV; parameters: method as in Bullard-Feibelman et al., 2017; conditions: Jar cells; ref Bullard-Feibelman et al., 2017; cited from earlier work
ZIKV [16] = tested on: ZIKV; parameters: method as in Yang et al., 2018; conditions: SNB-19 cells; ref Yang et al., 2018; cited from earlier work
ZIKV [17] = tested on: ZIKV; parameters: method as in Yang et al., 2018; conditions: ENV+ cells; ref Yang et al., 2018; cited from earlier work
[18] = reading time not stated at the place (assay read at 36 and 72 h)

For `COC1=CC(c2cc3ccccc3[nH]2)=N/C1=C\c1[nH]c(C)cc1C` [obatoclax], the SI (ZIKV [1]) is given as 65.

With `CCOC(=O)c1c(CSc2ccccc2)n(C)c2cc(Br)c(O)c(CN(C)C)c12` [ARB, Arbidol] the selectivity ratio at 36 h (ZIKV Paraiba/2015 [2]; post-treatment, 36 h) was 4.11, the IC50 (ZIKV Paraiba/2015 [2]; 36 h) was 18.2 ± 1.16 µM and the CC50 at 36 h [3] was 74.7 ± 1.09 µM. For the same compound, the CC50 at 72 h [3] was 59.4 ± 1.1 µM, the CC50 at 36 h [4] was 114.6 ± 1.08 µM and the CC50 at 72 h [4] was 91 ± 1.08 µM. For the same compound, the IC50 (ZIKV Paraiba/2015 [5]) was 51.9 ± 1.08 µM and the selectivity ratio at 36 h (ZIKV Paraiba/2015 [5]) was 2.21.

For `O=C(O)C1=CC(=C(c2ccc(O)c(C(=O)O)c2)c2ccc(O)c(C(=O)O)c2)C=CC1=O` [ATA, aurintricarboxylic acid], the selectivity ratio at 36 h (ZIKV Paraiba/2015 [2]; post-treatment, 36 h) was 72.1, the “SI (selective index, CC50/IC50)” value (ZIKV Paraiba/2015 [2]; Paraiba/2015, Vero cells, post-treatment, 36 h) was >72.10 and the “SI (selective index), range in Vero cells” value (ZIKV Paraiba/2015 [2]; Vero cells, range over all ZIKV strains and pre-/post-treatment settings of this study) was 56.98–95.24. The IC50 (ZIKV Paraiba/2015 [2]; 36 h) was 13.9 ± 1.09 µM, the “ZIKV replication (viral titer in supernatant)” value (“ZIKV replication” below) (ZIKV Paraiba/2015 [6]; MOI 0.1, 2.5 μM) was “partial viral inhibition” and the “ZIKV replication” value (ZIKV Paraiba/2015 [6]; MOI 0.1, 250 μM) was “completely inhibited”. The “toxicity (cell viability)” value (Vero cells) was “did not observe any toxicity”, the CC50 at 36 h [3] was > 1000 µM and the CC50 at 72 h [3] was > 1000 µM. For the same compound, the CC50 [3, 18] was > 1000 µM, the selectivity ratio at 60 h (ZIKV Nigeria/1968; African green monkey, Vero cells infected with ZIKV Nigeria/1968) was > 62.6 and the IC50 (ZIKV Nigeria/1968; Zika virus, Vero, 60 h) was 16 ± 1.02 µM. The “protection of mice from a lethal challenge” value (Vaccinia virus) was “did not protect”, the “toxicity (cell viability)” value (A549 cells) was “did not observe any toxicity” and the CC50 at 36 h [4] was > 1000 µM. The CC50 at 72 h [4] was > 1000 µM, the CC50 [4, 18] was > 1000 µM and the “ZIKV-induced CPE” value [7] was “able to prevent ZIKV-induced CPE”. For the same compound, the “caspase 3 and 7 induction as compared to mock-infected cells” value [8] was 0.4 fold, the selectivity ratio at 48 h (ZIKV Puerto Rico/2015; African green monkey, Vero cells infected with ZIKV Puerto Rico/2015) was > 57 and the IC50 (ZIKV Puerto Rico/2015; Zika virus, Vero, 48 h) was 17.6 ± 1.16 µM. The “caspase 3 and 7 induction as compared to mock-infected cells” value [9] was 1.7 fold, the IC50 (ZIKV Paraiba/2015 [5]) was 33.3 ± 1.13 µM and the selectivity ratio at 36 h (ZIKV Paraiba/2015 [5]) was 26.3. For the same compound, the selectivity ratio at 48 h (ZIKV Uganda/1947; African green monkey, Vero cells infected with ZIKV Uganda/1947) was > 66.3, the IC50 (ZIKV Uganda/1947; Zika virus, Vero, 48 h) was 15.1 ± 1.19 µM and the selectivity ratio at 48 h ([10]; African green monkey, Vero cells infected with ZIKV French Polynesia/2013) was > 76.8. The IC50 ([10]; Zika virus, Vero, 48 h) was 13.9 ± 1.01 µM, the “ZIKV-induced CPE” value [11] was “able to prevent ZIKV-induced CPE” and the “ZIKV replication” value (ZIKV Paraiba/2015 [12]; MOI 0.1, 25 μM) was “partial viral inhibition”. The “ZIKV replication” value (ZIKV Paraiba/2015 [12]; MOI 0.1, 250 μM) was “completely inhibited”, the selectivity ratio at 12 h (ZIKV Paraiba/2015 [13]; African green monkey, pre-treatment 12 h, read-out: SI (selective index, CC50/IC50)) was > 69.8 and the selectivity ratio at 24 h (ZIKV Paraiba/2015 [13]; African green monkey, pre-treatment 24 h, read-out: SI (selective index, CC50/IC50)) was > 75.9. For the same compound, the selectivity ratio at 48 h (ZIKV Paraiba/2015 [13]; African green monkey, pre-treatment 48 h, read-out: SI (selective index, CC50/IC50)) was > 79.4, the selectivity ratio at 72 h (ZIKV Paraiba/2015 [13]; African green monkey, pre-treatment 72 h, read-out: SI (selective index, CC50/IC50)) was > 95.2 and the IC50 (ZIKV Paraiba/2015 [13]; pre-treatment 12 h before infection) was 14.3 ± 1.06 µM. The IC50 (ZIKV Paraiba/2015 [13]; pre-treatment 24 h before infection) was 13.2 ± 1.05 µM, the IC50 (ZIKV Paraiba/2015 [13]; pre-treatment 48 h before infection) was 12.6 ± 1.02 µM and the IC50 (ZIKV Paraiba/2015 [13]; pre-treatment 72 h before infection) was 10.5 ± 1.05 µM.

In the case of `CC(C)OC(=O)[C@H](C)N[P@](=O)(OC[C@H]1O[C@@H](n2ccc(=O)[nH]c2=O)[C@](C)(F)[C@@H]1O)Oc1ccccc1` [sofosbuvir], the SI (ZIKV [14]) is listed as > 52.63 and the SI (ZIKV [15]) is listed as > 90.9.

For `C[C@H]1C/C=C/Cc2cccc(O)c2C(=O)O[C@@H](C/C=C/NC(=O)C#Cc2ccccc2)C[C@H]1O` [saliphenylhalamide], the SI (ZIKV [1]) is given as > 200.

For `CC[C@H]1CN2CCc3cc(OC)c(OC)cc3[C@@H]2C[C@@H]1C[C@H]1NCCc2cc(OC)c(OC)cc21` [emetine], the SI (ZIKV [16]) is listed as 9.84 and the SI (ZIKV [17]) is listed as 2.88.

In the case of `Nc1ccn([C@@H]2O[C@H](CO)[C@@H](O)C2(F)F)c(=O)n1` [gemcitabine], the SI (ZIKV [1]) is listed as > 1,000.
